Source: ChEMBL document CHEMBL3137667, “[Drug-induced liver injury; fourteenth updated edition of the bibliographic database of liver injuries and related drugs]” (Gastroenterol Clin Biol, 2004)

Tests used:
[1] = human
[2] = human, serum, 4383 h
[3] = human; remark: listed apart in the source
[4] = human; remark: listed apart in the source
[5] = human; remark: listed apart in the source
[6] = human; remark: listed apart in the source
[7] = Highest frequency of moderate liver toxicity observed during clinical trials, expressed as a percentage. [column '% BIOL' in source]; settings: human
[8] = Presence of at least one case with successful reintroduction. [column 'REINT' in source]; settings: human
[9] = human; remark: listed apart in the source
[10] = human; remark: listed apart in the source
[11] = human; remark: listed apart in the source
[12] = human; remark: listed apart in the source
[13] = human, serum
[14] = Comments (NB not yet translated). [column 'COMMENTAIRES' in source]; settings: human
[15] = human; remark: listed apart in the source
[16] = Highest frequency of acute liver toxicity observed during clinical trials, expressed as a percentage. [column '% AIGUE' in source]; settings: human
[17] = Times to onset, minimal and maximal, observed in the indexed observations. [column 'DELAI' in source]; settings: human
[18] = Proposed mechanism(s) of liver damage. [column 'MEC' in source]; settings: human
[19] = human, serum; remark: listed apart in the source
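For Hepatotoxicity (association with vascular disease) in this document: count of indexed literature references reporting vascular liver injury in humans, e.g. peliosis hepatitis, hepatic veno-occlusive disease or Budd-Chiari syndrome.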
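For Hepatotoxicity (benign tumour) in this document: value is a count of indexed literature references citing a benign tumour confirmed by histopathology.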
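For Hepatotoxicity (choleostasis) in this document: human cholestatic liver injury, shown by histopathology or by peak ALT or AST elevation over alkaline phosphatase ratio below 2, value counts indexed literature reports.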
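For Hepatotoxicity (chronic liver disease) in this document: chronic liver injury confirmed by histopathology or persistently raised serum aminotransferase activity beyond 6 months, value given as the count of indexed literature references.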
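For Hepatotoxicity (cirrhosis) in this document: value is a count of indexed literature references reporting cirrhosis confirmed by histopathology.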
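For Hepatotoxicity (cytolytic) in this document: human cytolytic liver injury, shown by histopathology or by a ratio above 5 of peak ALT or AST elevation to alkaline phosphatase elevation, value counts indexed references.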
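For Hepatotoxicity (granulomatous hepatitis) in this document: value is a count of indexed literature references reporting granulomatous liver disease confirmed by histopathology.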
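For Hepatotoxicity (malignant tumour) in this document: malignant tumour confirmed by histopathology, value gives the count of indexed literature references reporting it.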
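For Hepatotoxicity (severe hepatitis) in this document: human clinical data: severe hepatitis, meaning potentially life-threatening liver failure or clinically observed cases, the value counts how many indexed literature references report it.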
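For Hepatotoxicity (steatosis) in this document: steatosis confirmed by histopathology, value is the count of indexed references.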

Row | Compound | Hepatotoxicity (benign tumour) [1] | Hepatotoxicity (chronic liver disease) [2] | Hepatotoxicity (steatosis) [3] | Hepatotoxicity (cirrhosis) [4] | Hepatotoxicity (severe hepatitis) [5] | Hepatotoxicity (malignant tumour) [6] | Hepatotoxicity (moderate) [7] | Hepatotoxicity (successful reintroduction) [8] | Hepatotoxicity (granulomatous hepatitis) [9] | Hepatotoxicity (cytolytic) [10] | Hepatotoxicity (animal toxicity known) [11] | Hepatotoxicity (association with vascular disease) [12] | Hepatotoxicity (acute) [13] | Hepatotoxicity (comment) [14] | Hepatotoxicity (choleostasis) [15] | Hepatotoxicity (acute) [16] | Hepatotoxicity (time to onset) [17] | Hepatotoxicity (mechanism) [18] | Hepatotoxicity (moderate) [19] | Hepatotoxicity (severe hepatitis) ([5]; Liver) | further results
1 | CN(C)CCC=C1c2ccccc2CCc2ccccc21 [AMITRIPTYLINE] | 0 | 0 | 0 | 0 | 6 | 0 | 26% | yes | 0 | 9 | yes | 0 | 18 | CHOLESTASE_PROLONGEE CHOLANGITE | 12 | 3% | 1 week - 10 months | Allergic | 11 | – | –
2 | Cn1cnc([N+](=O)[O-])c1Sc1ncnc2nc[nH]c12 [AZATHIOPRINE] | 18 | 3 | 3 | 4 | – | 6 | – | yes | – | – | yes | 27 | 61 | HNR REACTIVATION_HVB CHOLANGITE MVO PELIOSE | – | – | 2 hours - 8 years | – | 40 | 5 | Hepatotoxicity (moderate) ([7]; Liver): 28%; Hepatotoxicity (granulomatous hepatitis) ([9]; Liver): 2; Hepatotoxicity (cytolytic) ([10]; Liver): 19; Hepatotoxicity (choleostasis) ([15]; Liver): 34; Hepatotoxicity (acute) ([16]; Liver): 11.1%; Hepatotoxicity (mechanism) ([18]; Liver): Allergic, Dose-dependant
3 | C[C@H](CS)C(=O)N1CCC[C@H]1C(=O)O [CAPTOPRIL] | 0 | 1 | 1 | 1 | – | 0 | – | yes | 0 | 7 | yes | 0 | 26 | PSEUDOCHOLANGITE RC/ENALAPRIL/LISINOPRIL | 16 | – | 9 days - 26 months | Allergic | 5 | 1 | Hepatotoxicity (moderate) ([7]; Liver): 4%; Hepatotoxicity (acute) ([16]; Liver): 0.1%
4 | CN(C)CCCN1c2ccccc2Sc2ccc(Cl)cc21 [CHLORPROMAZINE] | 0 | 6 | 1 | 8 | – | 0 | – | yes | 2 | 13 | yes | 0 | 58 | RC/PROMAZINE/THIORIDAZINE AC_ANTI-N #CBP DUCTOPENIE | 50 | – | 1 day - 28 years | Allergic, Toxic Metabolite | 9 | 4 | Hepatotoxicity (moderate) ([7]; Liver): 42%; Hepatotoxicity (acute) ([16]; Liver): 5.3%
5 | CN/C(=N/CCSCc1nc[nH]c1C)NC#N [CIMETIDINE] | 0 | 1 | 0 | 0 | – | 0 | – | yes | – | – | yes | 0 | 28 | RC/FAMOTIDINE I/MEBENDAZOLE | – | – | 2 days - 2 years | – | 29 | 3 | Hepatotoxicity (moderate) ([7]; Liver): 38%; Hepatotoxicity (granulomatous hepatitis) ([9]; Liver): 0; Hepatotoxicity (cytolytic) ([10]; Liver): 20; Hepatotoxicity (choleostasis) ([15]; Liver): 10; Hepatotoxicity (acute) ([16]; Liver): 0%; Hepatotoxicity (mechanism) ([18]; Liver): Allergic, Dose-dependant, Toxic Metabolite
6 | CC[C@H]1OC(=O)[C@H](C)[C@@H](O[C@H]2C[C@@](C)(OC)[C@@H](O)[C@H](C)O2)[C@H](C)[C@@H](O[C@@H]2O[C@H](C)C[C@H](N(C)C)[C@H]2O)[C@](C)(OC)C[C@@H](C)C(=O)[C@H](C)[C@@H](O)[C@]1(C)O [CLARITHROMYCIN] | 0 | 0 | 0 | 0 | 4 | 0 | 50.6% | yes | 0 | 9 | yes | 0 | 13 | AC_ANTI-N | 6 | 5.6% | 1 day - 10 weeks | Allergic, Dose-dependant | 47 | – | –
7 | O=P1(N(CCCl)CCCl)NCCCO1 (centres undefined) [CYCLOPHOSPHAMIDE ANHYDROUS] | 0 | 0 | 0 | 0 | – | 4 | – | yes | – | – | yes | 44 | 18 | CHC HNR MVO REACTIVATION_HVB | – | – | 2 days - 21 years | – | 16 | 11 | Hepatotoxicity (moderate) ([7]; Liver): 85%; Hepatotoxicity (granulomatous hepatitis) ([9]; Liver): 0; Hepatotoxicity (cytolytic) ([10]; Liver): 15; Hepatotoxicity (choleostasis) ([15]; Liver): 2; Hepatotoxicity (acute) ([16]; Liver): 2.6%; Hepatotoxicity (mechanism) ([18]; Liver): Dose-dependant
8 | Cc1onc(-c2c(F)cccc2Cl)c1C(=O)N[C@@H]1C(=O)N2[C@@H]1SC(C)(C)[C@@H]2C(=O)O [FLOXACILLIN] | 0 | 1 | 2 | 2 | 2 | 0 | 3.4% | yes | 1 | 2 | yes | 0 | 26 | CHOLESTASE_PROLONGEE CHOLANGITE #CBP | 20 | 0% | 12 hours - 2 months | Allergic | 4 | – | –
9 | O=c1[nH]c(=O)n([C@H]2C[C@H](O)[C@@H](CO)O2)cc1F [FLOXURIDINE] | 0 | 0 | 2 | 4 | 3 | 0 | 100% | yes | 0 | 2 | yes | 3 | 9 | CHOLECYSTITE_ACALCULEUSE CHOLANGITE/IAH #CBP | 7 | 60% | 3 cures - 12 cures | Dose-dependant | 25 | – | –
10 | CC(C)C(=O)Nc1ccc([N+](=O)[O-])c(C(F)(F)F)c1 [FLUTAMIDE] | 0 | 0 | 0 | 0 | 16 | 0 | 41.2% | yes | 0 | 21 | yes | 0 | 31 | AC_ANTI-N | 7 | 10% | 3 days - 10 months | Allergic, Reactive metabolite, Dose-dependant | 21 | – | –
11 | FC(F)(F)C(Cl)Br (centres undefined) [HALOTHANE] | 0 | 3 | 1 | 2 | 35 | 0 | 33% | yes | 2 | 31 | yes | 0 | 99 | AC_ANTI-MFR1/-TFA RC/METHOXYFLURANE/ENFLURANE | 7 | 0% | 1 day - 3 months | Allergic, Toxic Metabolite | 24 | – | –
